Values of other authors, collected in patent publication US20230056424A1, “PREVENTION OF THE CONVERSION OF PHARMACEUTICAL AGENTS INTO TOXIC N-NITROSAMINE COMPOUNDS” (ALFRED E. TIEFENBACHER (GMBH & CO. KG), priority 2021, published 2023).

Details: standards established by the health authorities

For O=NN1C[C@H]2C[C@@H](C1)c1cc3nccnc3cc12 [N-nitroso-varenicline], the “maximum allowed daily intake” value is given as 37 ng/day.
